Source: ChEMBL document CHEMBL1132539 (J Med Chem, 1999)

Key:
[1] = target: T1, Neprilysin (Oryctolagus cuniculus, UniProt P08049); assay: Binding affinity against NEP from rabbit kidney(neutral endopeptidase)
T1 sequence (P08049 whole entry): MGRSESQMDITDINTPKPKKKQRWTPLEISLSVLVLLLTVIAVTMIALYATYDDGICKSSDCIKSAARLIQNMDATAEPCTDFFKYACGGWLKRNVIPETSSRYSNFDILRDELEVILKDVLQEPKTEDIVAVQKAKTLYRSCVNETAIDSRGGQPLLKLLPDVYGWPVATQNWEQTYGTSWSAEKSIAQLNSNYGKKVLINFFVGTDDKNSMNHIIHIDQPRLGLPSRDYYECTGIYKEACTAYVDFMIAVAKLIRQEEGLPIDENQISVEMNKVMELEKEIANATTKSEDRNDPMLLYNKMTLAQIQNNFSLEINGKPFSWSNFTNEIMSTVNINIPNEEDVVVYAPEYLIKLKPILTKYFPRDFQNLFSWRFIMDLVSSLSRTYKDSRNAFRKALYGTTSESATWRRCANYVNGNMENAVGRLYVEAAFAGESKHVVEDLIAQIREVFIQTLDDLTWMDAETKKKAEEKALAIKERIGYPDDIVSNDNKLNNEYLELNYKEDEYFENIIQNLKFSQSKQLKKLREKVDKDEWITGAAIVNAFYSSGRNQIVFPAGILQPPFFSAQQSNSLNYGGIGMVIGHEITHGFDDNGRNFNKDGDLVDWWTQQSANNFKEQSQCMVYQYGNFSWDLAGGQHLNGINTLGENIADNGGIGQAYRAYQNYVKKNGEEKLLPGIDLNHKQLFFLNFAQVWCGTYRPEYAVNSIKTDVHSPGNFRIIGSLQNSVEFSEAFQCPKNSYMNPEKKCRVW

[2] = target: T2, Angiotensin-converting enzyme (Rattus norvegicus, UniProt P47820); assay: Binding affinity against Angiotensin I converting enzyme from rat testis
T2 sequence (P47820 whole entry): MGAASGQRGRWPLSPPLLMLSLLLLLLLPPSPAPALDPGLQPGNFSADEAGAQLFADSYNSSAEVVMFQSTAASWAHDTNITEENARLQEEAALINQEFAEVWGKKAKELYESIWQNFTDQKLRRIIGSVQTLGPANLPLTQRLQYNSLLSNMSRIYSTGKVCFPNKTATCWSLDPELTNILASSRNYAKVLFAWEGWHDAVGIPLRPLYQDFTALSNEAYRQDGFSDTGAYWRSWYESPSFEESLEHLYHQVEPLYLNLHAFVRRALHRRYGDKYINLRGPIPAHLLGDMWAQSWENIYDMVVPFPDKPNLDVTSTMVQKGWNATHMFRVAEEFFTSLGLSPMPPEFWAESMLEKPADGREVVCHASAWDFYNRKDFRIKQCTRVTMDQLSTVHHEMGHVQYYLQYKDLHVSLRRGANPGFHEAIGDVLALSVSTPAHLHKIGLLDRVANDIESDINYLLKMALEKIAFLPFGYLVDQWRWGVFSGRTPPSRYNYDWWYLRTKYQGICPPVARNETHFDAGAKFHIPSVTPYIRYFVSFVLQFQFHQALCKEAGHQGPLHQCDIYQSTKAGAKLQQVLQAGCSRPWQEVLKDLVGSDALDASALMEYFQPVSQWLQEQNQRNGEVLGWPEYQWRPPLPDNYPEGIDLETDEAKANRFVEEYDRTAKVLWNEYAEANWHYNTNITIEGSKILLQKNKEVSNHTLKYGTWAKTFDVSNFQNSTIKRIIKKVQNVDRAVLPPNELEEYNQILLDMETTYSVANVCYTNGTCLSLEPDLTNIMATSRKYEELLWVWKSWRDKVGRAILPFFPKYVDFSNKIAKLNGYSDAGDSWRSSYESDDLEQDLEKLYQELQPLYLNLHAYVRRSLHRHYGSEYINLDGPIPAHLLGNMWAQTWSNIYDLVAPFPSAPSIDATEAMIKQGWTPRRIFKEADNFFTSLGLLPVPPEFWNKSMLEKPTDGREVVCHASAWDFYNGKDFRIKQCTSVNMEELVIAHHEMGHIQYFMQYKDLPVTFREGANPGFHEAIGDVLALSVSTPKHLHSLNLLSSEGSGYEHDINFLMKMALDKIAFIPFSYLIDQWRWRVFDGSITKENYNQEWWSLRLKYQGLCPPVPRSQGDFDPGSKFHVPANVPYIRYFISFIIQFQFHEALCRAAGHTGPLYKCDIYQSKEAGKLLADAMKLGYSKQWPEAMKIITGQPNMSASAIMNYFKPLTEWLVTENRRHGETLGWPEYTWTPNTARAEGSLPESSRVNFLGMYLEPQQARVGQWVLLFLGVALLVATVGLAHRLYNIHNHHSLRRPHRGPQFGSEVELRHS

[3] = target: Glutamyl aminopeptidase (Homo sapiens, UniProt Q07075); assay: Binding affinity against recombinant Aminopeptidase A
[4] = target: T3, Aminopeptidase N (Sus scrofa, UniProt P15145)
T3 sequence (P15145 whole entry): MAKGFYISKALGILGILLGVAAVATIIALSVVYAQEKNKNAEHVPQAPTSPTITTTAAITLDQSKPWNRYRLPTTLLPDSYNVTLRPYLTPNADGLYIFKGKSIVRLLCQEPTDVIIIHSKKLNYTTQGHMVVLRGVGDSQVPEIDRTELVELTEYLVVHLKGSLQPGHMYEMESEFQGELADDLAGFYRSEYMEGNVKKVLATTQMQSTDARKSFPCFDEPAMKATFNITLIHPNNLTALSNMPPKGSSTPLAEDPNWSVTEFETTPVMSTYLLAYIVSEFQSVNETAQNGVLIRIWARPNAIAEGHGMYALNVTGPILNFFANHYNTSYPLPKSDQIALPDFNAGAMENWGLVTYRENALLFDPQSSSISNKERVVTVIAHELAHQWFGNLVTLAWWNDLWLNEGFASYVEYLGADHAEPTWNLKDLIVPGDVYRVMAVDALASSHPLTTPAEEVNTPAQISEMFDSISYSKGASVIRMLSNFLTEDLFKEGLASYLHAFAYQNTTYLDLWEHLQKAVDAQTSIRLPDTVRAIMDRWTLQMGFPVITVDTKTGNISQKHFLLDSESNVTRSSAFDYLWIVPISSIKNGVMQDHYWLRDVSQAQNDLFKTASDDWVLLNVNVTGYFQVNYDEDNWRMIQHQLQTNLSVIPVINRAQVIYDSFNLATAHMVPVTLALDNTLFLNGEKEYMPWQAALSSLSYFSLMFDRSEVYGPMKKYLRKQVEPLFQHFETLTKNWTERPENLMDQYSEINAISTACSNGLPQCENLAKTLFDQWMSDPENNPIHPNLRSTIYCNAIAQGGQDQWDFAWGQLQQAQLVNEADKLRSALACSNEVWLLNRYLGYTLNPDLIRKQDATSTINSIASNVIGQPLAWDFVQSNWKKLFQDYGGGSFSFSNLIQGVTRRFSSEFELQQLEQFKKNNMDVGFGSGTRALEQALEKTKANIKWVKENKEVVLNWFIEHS
Description: Binding affinity against aminopeptidase N from pig kidney

Glutamyl aminopeptidase, sequence (Q07075 whole entry): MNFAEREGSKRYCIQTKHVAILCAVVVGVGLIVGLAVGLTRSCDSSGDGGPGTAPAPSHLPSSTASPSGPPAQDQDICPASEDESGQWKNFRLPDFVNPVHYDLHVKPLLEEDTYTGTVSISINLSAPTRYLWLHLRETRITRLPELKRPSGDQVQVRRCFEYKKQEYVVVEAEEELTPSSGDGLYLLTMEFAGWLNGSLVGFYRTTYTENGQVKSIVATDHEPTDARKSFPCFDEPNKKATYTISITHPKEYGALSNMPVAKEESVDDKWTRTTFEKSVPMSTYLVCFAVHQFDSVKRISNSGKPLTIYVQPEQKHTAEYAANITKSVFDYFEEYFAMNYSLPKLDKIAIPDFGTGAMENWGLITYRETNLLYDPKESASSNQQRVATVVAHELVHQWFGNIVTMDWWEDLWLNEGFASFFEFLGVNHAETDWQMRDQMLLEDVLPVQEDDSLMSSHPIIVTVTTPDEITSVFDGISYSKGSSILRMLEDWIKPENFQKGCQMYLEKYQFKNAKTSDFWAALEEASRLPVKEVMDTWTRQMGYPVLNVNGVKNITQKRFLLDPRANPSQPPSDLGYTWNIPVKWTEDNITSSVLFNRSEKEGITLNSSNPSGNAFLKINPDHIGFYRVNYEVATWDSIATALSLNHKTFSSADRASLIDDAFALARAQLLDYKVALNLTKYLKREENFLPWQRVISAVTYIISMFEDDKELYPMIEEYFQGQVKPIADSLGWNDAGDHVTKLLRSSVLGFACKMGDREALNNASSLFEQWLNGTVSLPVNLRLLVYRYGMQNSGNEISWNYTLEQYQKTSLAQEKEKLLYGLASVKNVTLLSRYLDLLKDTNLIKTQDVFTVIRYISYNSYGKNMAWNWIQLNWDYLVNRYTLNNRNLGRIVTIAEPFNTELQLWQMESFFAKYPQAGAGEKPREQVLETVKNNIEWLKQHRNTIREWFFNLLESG

Row | Ki [1] | Ki [2] | Ki [3] | Ki [4] | Structure (SMILES)
1 | 219 nM | 259 nM | 0.873 nM |  | CC[C@@H](C)[C@H](NC(=O)[C@H](S)[C@H](N)CCS(=O)(=O)O)C(=O)N1CCC(C(=O)O)[C@H]1C(=O)O (some centres undefined)
2 |  |  | 80 nM | 28000 nM | CC[C@@H](C)[C@H](NC(=O)C(S)C(N)CCS(N)(=O)=O)C(=O)N[C@@H](CC(=O)O)C(=O)O (some centres undefined)
3 |  |  | 15 nM | 44000 nM | CC[C@@H](C)[C@H](NC(=O)[C@H](S)[C@H](N)CCS(=O)(=O)O)C(=O)N[C@@H](CC(=O)O)C(N)=O
4 |  |  | 145 nM | > 10000 nM | CC[C@@H](C)[C@H](NC(=O)[C@H](S)[C@H](N)CCS(=O)(=O)O)C(N)=O
5 |  |  | 73.3 nM |  | N[C@H](CCS(=O)(=O)O)[C@H](S)C(=O)N[C@@H](Cc1ccc(O)cc1)C(=O)N[C@@H](CCS(=O)(=O)O)C(=O)O
6 |  |  | 1200 nM | > 10000 nM | CC[C@@H](C)[C@H](NC(=O)[C@@H](S)[C@H](N)CCS(=O)(=O)O)C(=O)O
7 |  |  | 283 nM | > 100000 nM | CC[C@@H](C)[C@H](NC(=O)[C@@H](S)[C@H](N)CCS(=O)(=O)O)C(=O)N[C@H](CC(=O)O)C(=O)O
8 | 22 nM | 1200 nM | 3.2 nM | > 100000 nM | CC[C@@H](C)[C@H](NC(=O)[C@H](S)[C@H](N)CCS(=O)(=O)O)C(=O)N[C@@H](CC(=O)O)C(=O)O
9 |  |  | 13 nM | 120 nM | CC[C@@H](C)[C@H](NC(=O)[C@H](S)[C@@H](N)CCC(=O)O)C(=O)N[C@@H](CC(=O)O)C(=O)O
10 |  |  | 4200 nM | > 10000 nM | CC[C@@H](C)[C@H](NC(=O)[C@@H](S)[C@H](N)CCS(=O)(=O)O)C(N)=O
11 | 5.4 nM | 2200 nM | 12 nM | > 10000 nM | CC[C@@H](C)[C@H](NC(=O)[C@H](S)[C@H](N)CCP(=O)(O)O)C(=O)N[C@@H](CC(=O)O)C(=O)O
12 |  |  | 51 nM | 3400 nM | CC[C@@H](C)[C@H](NCC(S)C(N)CCS(N)(=O)=O)C(=O)N[C@@H](CC(=O)O)C(=O)O (some centres undefined)
13 |  |  | 240 nM |  | CC[C@@H](C)[C@H](NC(=O)[C@@H](S)[C@H](N)CCS(=O)(=O)O)C(=O)N1CCC(C(=O)O)[C@@H]1C(=O)O (some centres undefined)
14 | 4 nM | 1800 nM | 3.56 nM | > 10000 nM | CC[C@@H](C)[C@H](NC(=O)[C@H](S)[C@H](N)CCC(=O)O)C(=O)N[C@@H](CC(=O)O)C(=O)O
15 |  |  | 470 nM | 51000 nM | CC[C@@H](C)[C@H](NC(=O)[C@@H](S)[C@H](N)CCS(=O)(=O)O)C(=O)N[C@@H](CC(=O)O)C(N)=O
16 |  |  | 20 nM | 23000 nM | CC[C@@H](C)[C@H](NC(=O)[C@H](S)[C@@H](N)CCS(=O)(=O)O)C(=O)N[C@@H](CC(=O)O)C(=O)O
17 |  |  | 267 nM | > 10000 nM | CC[C@@H](C)[C@H](NC(=O)[C@@H](S)[C@H](N)CCC(=O)O)C(=O)N[C@@H](CC(=O)O)C(=O)O

Row | Ki [1] | Ki [2] | Ki [3] | Ki [4] | Structure (SMILES)
18 |  |  | 14.7 nM | > 100000 nM | CC[C@H](C)[C@@H](NC(=O)[C@H](S)[C@H](N)CCS(=O)(=O)O)C(=O)N[C@@H](CC(=O)O)C(=O)O
19 |  |  | 83.3 nM |  | CC[C@@H](C)[C@H](NC(=O)[C@@H](S)[C@H](N)CCS(=O)(=O)O)C(=O)N[C@@H](CS(=O)(=O)O)C(=O)O
20 |  |  | 40 nM | > 10000 nM | CC[C@@H](C)[C@H](NC(=O)[C@H](S)[C@H](N)CCS(=O)(=O)O)C(=O)O
21 | 17 nM | 1210 nM | 3.6 nM |  | CC[C@@H](C)[C@H](NC(=O)[C@H](S)[C@H](N)CCS(=O)(=O)O)C(=O)N[C@@H](CS(=O)(=O)O)C(=O)O
22 |  |  | 50 nM | > 100000 nM | CC[C@@H](C)[C@H](NC(=O)[C@@H](S)[C@@H](N)CCS(=O)(=O)O)C(=O)N[C@@H](CC(=O)O)C(=O)O
23 |  |  | 5.36 nM | > 100000 nM | CC[C@@H](C)[C@H](NC(=O)[C@H](S)[C@H](N)CCS(=O)(=O)O)C(=O)N[C@H](CC(=O)O)C(=O)O
24 | 520 nM | 1090 nM | 3.83 nM |  | CC[C@@H](C)[C@H](NC(=O)[C@H](S)[C@H](N)CCS(=O)(=O)O)C(=O)N1CCC(C(=O)O)[C@@H]1C(=O)O (some centres undefined)
25 |  |  | 16 nM | 3900 nM | CC[C@@H](C)[C@H](NC(=O)[C@@H](S)[C@@H](N)CCC(=O)O)C(=O)N[C@@H](CC(=O)O)C(=O)O
26 |  |  | 910 nM | > 10000 nM | CC[C@@H](C)[C@H](NC(=O)[C@@H](S)[C@H](N)CCP(=O)(O)O)C(=O)N[C@@H](CC(=O)O)C(=O)O
27 |  |  | 150 nM | 7000 nM | NC(CCS(N)(=O)=O)C(S)C(=O)N[C@@H](Cc1ccc(O)cc1)C(=O)N[C@@H](CC(=O)O)C(=O)O (some centres undefined)
28 |  |  | 53 nM | > 100000 nM | CC[C@@H](C)[C@H](NC(=O)[C@@H](S)[C@H](N)CCS(=O)(=O)O)C(=O)N[C@@H](CC(=O)O)C(=O)O
29 | 34 nM | 1800 nM | 4.3 nM | 31000 nM | N[C@H](CCS(=O)(=O)O)[C@@H](S)C(=O)N[C@@H](Cc1ccc(O)cc1)C(=O)N[C@@H](CC(=O)O)C(=O)O
30 |  |  | 292 nM | > 100000 nM | CC[C@H](C)[C@@H](NC(=O)[C@@H](S)[C@H](N)CCS(=O)(=O)O)C(=O)N[C@@H](CC(=O)O)C(=O)O
31 | 520 nM | 660 nM | 9.3 nM |  | N[C@H](CCS(=O)(=O)O)[C@@H](S)C(=O)N[C@@H](Cc1ccc(O)cc1)C(=O)N[C@@H](CCS(=O)(=O)O)C(=O)O
32 |  |  | 110 nM |  | CC[C@@H](C)[C@H](NC(=O)[C@@H](S)[C@H](N)CCS(=O)(=O)O)C(=O)N1CCC(C(=O)O)[C@H]1C(=O)O (some centres undefined)
33 |  |  | 27 nM | 48000 nM | N[C@H](CCS(=O)(=O)O)[C@H](S)C(=O)N[C@@H](Cc1ccc(O)cc1)C(=O)N[C@@H](CC(=O)O)C(=O)O
